The record followed here is patent US9650334B2 (AbbVie Deutschland GmbH & Co. KG, priority 2013, dated 2017).

Where only a bound is given, the exact number is not on record here.

For one assay, the target named is T1, human GlyT1c transporter (Homo sapiens, UniProt P48067).
T1 sequence (P48067 1-706): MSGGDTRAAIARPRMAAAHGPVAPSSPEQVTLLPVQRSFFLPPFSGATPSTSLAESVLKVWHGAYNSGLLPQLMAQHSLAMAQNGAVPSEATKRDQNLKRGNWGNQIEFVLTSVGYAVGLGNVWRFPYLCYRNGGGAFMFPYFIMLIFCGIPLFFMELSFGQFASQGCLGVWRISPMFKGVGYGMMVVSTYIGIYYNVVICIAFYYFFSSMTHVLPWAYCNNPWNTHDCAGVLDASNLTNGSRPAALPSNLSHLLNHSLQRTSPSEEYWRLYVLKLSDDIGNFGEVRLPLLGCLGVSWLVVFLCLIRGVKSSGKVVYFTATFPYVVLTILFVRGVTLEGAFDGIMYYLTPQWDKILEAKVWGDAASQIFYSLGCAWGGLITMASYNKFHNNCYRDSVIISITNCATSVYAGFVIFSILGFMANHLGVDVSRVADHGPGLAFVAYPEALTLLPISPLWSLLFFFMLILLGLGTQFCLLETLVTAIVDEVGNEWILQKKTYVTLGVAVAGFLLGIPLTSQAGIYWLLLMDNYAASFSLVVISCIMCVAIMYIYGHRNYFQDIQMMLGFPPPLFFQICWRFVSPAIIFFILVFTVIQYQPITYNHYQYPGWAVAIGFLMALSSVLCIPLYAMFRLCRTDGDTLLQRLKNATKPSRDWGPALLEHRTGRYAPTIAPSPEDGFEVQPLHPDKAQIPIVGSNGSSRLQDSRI
Kind of assay: Radioligand binding assays using recombinant CHO cell membranes expressing human GlyT1. The note with it: Ki, radioligand binding to human GlyT1c transporter-expressing CHO cell membranes.
What is called Ki is a dissociation constant, usually derived from enzyme kinetics or from competition with a known ligand. In the case of `Cn1cnc(S(=O)(=O)N2CC(Cc3cccc(C(F)(F)F)c3)C(C3OCCCO3)C2)c1` (stereo not drawn) [Example 918, 4-({3-(1,3-dioxan-2-yl)-4-[3-(trifluoromethyl)benzyl]pyrrolidin-1-yl}sulfonyl)-1-methyl-1H-imidazole], the inhibition constant Ki was no more than 1 µM.

As to `Cn1cnc(S(=O)(=O)N2C[C@H](Nc3cccc(OCC(F)F)c3)[C@@H](C3OCCCO3)C2)c1` [Example 928, (3R,4S)-N-[3-(2,2-difluoroethoxy)phenyl]-4-(1,3-dioxan-2-yl)-1-[(1-methyl-1H-imidazol-4-yl)sulfonyl]pyrrolidin-3-amine], the Ki was no more than 0.01 µM.

With `Cn1cnc(S(=O)(=O)N2[C@@H]3CC[C@H]2[C@H](c2ccc(F)cc2)[C@H]3Nc2ccc(F)c(C(F)(F)F)c2)c1` [Example 877, (1R,2R,3R,4S)-3-(4-fluorophenyl)-N-[4-fluoro-3-(trifluoromethyl)phenyl]-7-[(1-methyl-1H-imidazol-4-yl)sulfonyl]-7-azabicyclo[2.2.1]heptan-2-amine], the inhibition constant (Ki) is no more than 10 µM.

For `Cn1cnc(S(=O)(=O)N2C[C@@H](Nc3ccc(F)c(F)c3)[C@H](c3ncccc3F)C2)c1` (relative stereo) [Example 766, Trans-N-(3,4-difluorophenyl)-4-(3-fluoropyridin-2-yl)-1-[(1-methyl-1H-imidazol-4-yl)sulfonyl]pyrrolidin-3-amine], the inhibition constant Ki was no more than 1 µM.

On to `Cn1cnc(S(=O)(=O)N2C[C@@H](NCc3ccc(C(F)(F)F)cc3Cl)[C@H](c3ncccc3F)C2)c1` (relative stereo) [Example 761, Trans-N-[2-chloro-4-(trifluoromethyl)benzyl]-4-(3-fluoropyridin-2-yl)-1-[(1-methyl-1H-imidazol-4-yl)sulfonyl]pyrrolidin-3-amine], for which the inhibition constant (Ki) was no more than 0.1 µM.

Regarding `Cn1cnc(S(=O)(=O)N2CC3CCCN(C(=O)c4cccc(C(F)(F)F)c4Cl)C3C2)c1` (stereo not drawn) [Example 874, [2-chloro-3-(trifluoromethyl)phenyl]{6-[(1-methyl-1H-imidazol-4-yl)sulfonyl]octahydro-1H-pyrrolo[3,4-b]pyridin-1-yl}methanone], the Ki is no more than 10 µM.

Turning to `Cn1cnc(S(=O)(=O)N2CC(Nc3cccc(OC(F)(F)F)c3)C(c3ccc(F)cn3)C2)c1` (stereo not drawn) [Example 895, 4-(5-fluoropyridin-2-yl)-1-[(1-methyl-1H-imidazol-4-yl)sulfonyl]-N-[3-(trifluoromethoxy)phenyl]pyrrolidin-3-amine], the inhibition constant Ki is no more than 0.01 µM.

Take `Cn1cnc(S(=O)(=O)N2CC(Nc3cccc(OC(F)(F)F)c3)C(C3CCCN(C4CC4)C3)C2)c1` (stereo not drawn) [Example 641, 4-[-1-cyclopropylpiperidin-3-yl]-1-[(1-methyl-1H-imidazol-4-yl)sulfonyl]-N-[3-(trifluoromethoxy)phenyl]pyrrolidin-3-amine]: the inhibition constant Ki was no more than 0.1 µM.

Take `Cn1cc(S(=O)(=O)N2CC3c4ccccc4CC3(Nc3cc(C(F)(F)F)ncn3)C2)nn1` (stereo not drawn) [Example 891, 2-[(1-methyl-1H-1,2,3-triazol-4-yl)sulfonyl]-N-[6-(trifluoromethyl)pyrimidin-4-yl]-2,3,3a,8-tetrahydroindeno[1,2-c]pyrrol-8a(1H)-amine]: the inhibition constant (Ki) was no more than 0.1 µM.

Take `Cn1cnc(S(=O)(=O)N2CC(Nc3cccc(OC(F)(F)F)c3)c3ccccc32)c1` (stereo not drawn) [Example 887, 1-[(1-methyl-1H-imidazol-4-yl)sulfonyl]-N-[3-(trifluoromethoxy)phenyl]-2,3-dihydro-1H-indol-3-amine]: the inhibition constant (Ki) is no more than 0.1 µM.

For the compound `Cn1cnc(S(=O)(=O)N2C[C@H](Nc3ccc(F)c(C(F)(F)F)c3)[C@@H](C3OCCCO3)C2)c1` [Example 912, (3R,4S)-4-(1,3-dioxan-2-yl)-N-[4-fluoro-3-(trifluoromethyl)phenyl]-1-[(1-methyl-1H-imidazol-4-yl)sulfonyl]pyrrolidin-3-amine], the inhibition constant Ki was no more than 0.01 µM.

With `CC(C)c1cccc(N[C@H]2CN(S(=O)(=O)c3cn(C)cn3)C[C@@H]2C2OCCCO2)c1` [Example 926, (3R,4S)-4-(1,3-dioxan-2-yl)-1-[(1-methyl-1H-imidazol-4-yl)sulfonyl]-N-[3-(propan-2-yl)phenyl]pyrrolidin-3-amine], the Ki is no more than 0.01 µM.

Consider `Cn1cnc(S(=O)(=O)N2C[C@H](NCc3cnc(Br)s3)[C@@H](c3ccccc3)C2)c1` [Example 438, (3R,4S)-N-[(2-bromo-1,3-thiazol-5-yl)methyl]-1-[(1-methyl-1H-imidazol-4-yl)sulfonyl]-4-phenylpyrrolidin-3-amine], for which the Ki is no more than 1 µM.

In the case of `Cn1cnc(S(=O)(=O)N2CC3c4ccccc4CCC3(NCc3ccc(F)cc3)C2)c1` (stereo not drawn) [Example 889, N-(4-fluorobenzyl)-2-[(1-methyl-1H-imidazol-4-yl)sulfonyl]-1,2,3,4,5,9b-hexahydro-3aH-benzo[e]isoindol-3a-amine], the Ki is no more than 0.1 µM.

Turning to `Cn1cnc(S(=O)(=O)N2C[C@H](NCc3cccc(OC(F)(F)F)c3)[C@@H](C3OCCCO3)C2)c1` [Example 905, (3R,4S)-4-(1,3-dioxan-2-yl)-1-[(1-methyl-1H-imidazol-4-yl)sulfonyl]-N-[3-(trifluoromethoxy)benzyl]pyrrolidin-3-amine], the inhibitory constant (Ki) was no more than 1 µM.

With `CN1CCCCC1C1CN(S(=O)(=O)c2cn(C)cn2)CC1Nc1cccc(OC(F)(F)F)c1` (stereo not drawn) [Example 898, 1-[(1-methyl-1H-imidazol-4-yl)sulfonyl]-4-(1-methylpiperidin-2-yl)-N-[3-(trifluoromethoxy)phenyl]pyrrolidin-3-amine], the Ki was no more than 0.01 µM.

Consider `Cn1cnc(S(=O)(=O)N2CC3c4ccccc4CCC3(Oc3cc(C(F)(F)F)ncn3)C2)c1` (stereo not drawn) [Example 888, 2-[(1-methyl-1H-imidazol-4-yl)sulfonyl]-3a-{[6-(trifluoromethyl)pyrimidin-4-yl]oxy}-2,3,3a,4,5,9b-hexahydro-1H-benzo[e]isoindole], for which the inhibitory constant (Ki) is no more than 1 µM.

Regarding `CCCCCN(C)[C@H]1CN(S(=O)(=O)c2cn(C)cn2)C[C@@H]1C1OCCCO1` [Example 907, (3R,4S)-4-(1,3-dioxan-2-yl)-N-methyl-1-[(1-methyl-1H-imidazol-4-yl)sulfonyl]-N-pentylpyrrolidin-3-amine], the inhibitory constant (Ki) is no more than 1 µM.

Take `CCCCC1CN([C@H]2CN(S(=O)(=O)c3cn(C)cn3)C[C@@H]2c2ccc(F)cc2)C(=O)O1` (stereo partly drawn) [Example 863, 5-butyl-3-{(3R,4S)-4-(4-fluorophenyl)-1-[(1-methyl-1H-imidazol-4-yl)sulfonyl]pyrrolidin-3-yl}-1,3-oxazolidin-2-one]: the Ki is no more than 1 µM.

In the case of `Cn1cnc(S(=O)(=O)N2C[C@@H](c3ccccc3)[C@](C)(Nc3cc(C(F)(F)F)ccn3)C2)c1` (relative stereo) [Example 388, N-{Trans-3-methyl-1-[(1-methyl-1H-imidazol-4-yl)sulfonyl]-4-phenylpyrrolidin-3-yl}-4-(trifluoromethyl)pyridin-2-amine], the Ki is no more than 0.1 µM.

For `Cn1cnc(S(=O)(=O)N2CC(C(=O)NCc3ccc(F)c(Cl)c3)C3(CCCCC3)C2)c1` (stereo not drawn) [Example 881, N-(3-chloro-4-fluorobenzyl)-2-[(1-methyl-1H-imidazol-4-yl)sulfonyl]-2-azaspiro[4.5]decane-4-carboxamide], the Ki was no more than 1 µM.

On to `Cn1cnc(S(=O)(=O)N2C[C@@H](Nc3ccc(OC(F)(F)F)c(C#N)c3)[C@H](c3ccccc3)C2)c1` (racemic) [Example 102, 5-({trans-1-[(1-methyl-1H-imidazol-4-yl)sulfonyl]-4-phenylpyrrolidin-3-yl}amino)-2-(trifluoromethoxy)benzonitrile], for which the inhibition constant Ki was no more than 1 µM.

As to `C[C@H]1C[C@H](C)OC([C@H]2CN(S(=O)(=O)c3cn(C)cn3)C[C@@H]2Nc2cccc(OC(F)(F)F)c2)O1` (stereo partly drawn) [Example 922, (3R,4S)-4-[(4S,6S)-4,6-dimethyl-1,3-dioxan-2-yl]-1-[(1-methyl-1H-imidazol-4-yl)sulfonyl]-N-[3-(trifluoromethoxy)phenyl]pyrrolidin-3-amine], the Ki is no more than 0.01 µM.

Turning to `CCCCNC(=O)O[C@@H]1CN(S(=O)(=O)c2cn(C)cn2)C[C@H]1c1ccc(F)cc1` [Example 699, (3S,4R)-4-(4-fluorophenyl)-1-[(1-methyl-1H-imidazol-4-yl)sulfonyl]pyrrolidin-3-yl butylcarbamate], the Ki was no more than 1 µM.

For the compound `Cn1cnc(S(=O)(=O)N2C[C@H](Nc3cccc(OC(F)(F)F)c3)[C@@H](C3OCCO3)C2)c1` [Example 902, (3R,4S)-4-(1,3-dioxolan-2-yl)-1-[(1-methyl-1H-imidazol-4-yl)sulfonyl]-N-[3-(trifluoromethoxy)phenyl]pyrrolidin-3-amine], the Ki is no more than 1 µM.

The same assay, now with this note: radioligand binding to human GlyT1c transporter-expressing CHO cell membranes.
Take “6-(cyclohexyloxy)-N-{(3R,4S)-4-(4-fluorophenyl)-1-[(1-methyl-1H-imidazol-4-yl)sulfonyl]pyrrolidin-3-yl}pyrimidin-4-amine [Example 721]”: the Ki was no more than 0.1 µM.

On to “Trans-N-[4-chloro-3-(trifluoromethyl)phenyl]-1-[(1-methyl-1H-imidazol-4-yl)sulfonyl]-4-[(3S)-tetrahydro-2H-pyran-3-yl]pyrrolidin-3-amine [Example 792]”, for which the Ki was no more than 10 µM.
